pIC50: −log10 of the molar value.
Biological target: T1, human MRGPR X4 (Homo sapiens, UniProt Q96LA9)
T1 construct: expressed in transfected cells
Test: MRGPR X4 antagonist activity, IP-One Gq HTRF assay in stably transfected HEK cells
Format: cell-based
Settings: not given
Procedure: HEK cells stably transfected to express human MIRGPR X4 were maintained in an incubator at 37° C. with 5% CO2 and grown in DMEM media with 10% fetal bovine serum (FBS) and […] each of sodium pyruvate, Glutamax, penicillin/streptomycin, and Geneticin. HEK cells stably transfected to express mouse MRGPR A1 were maintained in the same incubator and grown in DMEM media with 10% FBS, 1% each of sodium pyruvate, Glutamax, penicillin/streptomycin, Geneticin, and 2.2 mg/mL Hygromycin.
Cells were plated in a 384-well assay plate at 20,000 cells per well in 12 μL of Opti-MEM and kept in an incubator overnight. On the day of the assay, compounds solubilized at 10 mM in DMSO were added as a 10-point curve (10 uM final top concentration with 1:3 serial dilutions) using a Tecan D300E digital dispenser. Agonists were diluted in assay buffer (final concentrations of 5.7 mM Tris-HCl, 43 mM NaCl, 50 mM LiCl, pH=8) and 2 μL of the appropriate agonist are added to each well. Final concentrations of agonists were 10 μM bilirubin, 20 μM deoxycholic acid, or 100 μM conjugated bilirubin (obtained from Lee Biosolutions, catalog #910-12). Final concentrations of DMSO were kept consistent across the plate. Plates were incubated in the dark for 1 h at 37° C. and then for 30 minutes at room temperature. IP-1 standards and HTRF detection reagents were added according to the IP-One—Gq Kit purchased from Cisbio (part number 62IPAPEJ) and incubated in the dark for 1 h at room temperature. The plate was read on a Molecular Devices SpectraMax iD5 plate reader. The HTRF ratio was calculated from the raw data and graphed using GraphPad Prism to calculate an IC50 value for each compound.

T1 sequence (Q96LA9 whole entry): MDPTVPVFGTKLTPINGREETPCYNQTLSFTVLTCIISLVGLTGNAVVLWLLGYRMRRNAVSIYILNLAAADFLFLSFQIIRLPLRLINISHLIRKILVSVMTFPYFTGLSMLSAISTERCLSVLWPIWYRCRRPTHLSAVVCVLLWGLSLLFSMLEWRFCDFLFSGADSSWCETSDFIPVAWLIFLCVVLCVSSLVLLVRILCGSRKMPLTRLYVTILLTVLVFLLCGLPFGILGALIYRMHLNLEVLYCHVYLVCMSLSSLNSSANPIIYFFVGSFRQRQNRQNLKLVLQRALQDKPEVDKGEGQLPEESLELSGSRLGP

O=C(NCCc1nnc2ccccn12)c1nn(Cc2ccc(Cl)cc2F)c2ccc(F)cc12 [Compound 572] and O=C(NCCc1nnc2ccccn12)c1nn(Cc2ccc(Cl)cc2)c2cc(F)ccc12 [Compound 3] cannot be ordered by pIC50: greater than 7.00 for the first, greater than 7.00 for the second.

Compared with Cn1c(Cn2nc(C(=O)NCCc3nnc4ccccn34)c3ccccc32)nc2ccccc21 [Compound 544], CCn1c(Cn2nc(C(=O)NCCc3nnc4ccccn34)c3ccccc32)nc2ccccc21 [Compound 480] is lower in pIC50: 6.30 to 7.00 for the first, 6.00 to 6.30 for the second.

First: Cc1ccc(Cn2nc(C(=O)NCCc3ncon3)c3ccccc32)cc1 [Compound 126]
Second: Cc1ccc(Cn2nc(C(=O)NCCc3c[nH]nn3)c3ccccc32)cc1 [Compound 73]
The pIC50 of the first is lower: less than 5.60 for the first, 6.00 to 6.30 for the second.

First: COc1ccccc1Cn1cc(C(=O)NCCc2cccnc2)c2ccccc21 [Compound 226]
Second: O=C(NCCc1cccnc1)c1cn(Cc2ccccc2Cl)c2ccccc12 [Compound 183]
The pIC50 of the first is lower: less than 5.60 for the first, 6.00 to 6.30 for the second. The second is the more potent here.

First: O=C(NCCc1ccccn1)c1cn(Cc2ccccc2)c2ccccc12 [Compound 234]
Second: O=C(NCCc1ccccc1F)c1cn(Cc2ccc(Cl)cc2)c2ccccc12 [Compound 170]
The pIC50 of the first is lower: less than 5.60 for the first, 6.30 to 7.00 for the second. The second is the more potent here.

Compared with COc1cccc(CCNC(=O)c2nn(Cc3ccc(Cl)cc3)c3ccccc23)n1 [Compound 75], COc1cccc(F)c1CNC(=O)c1nn(Cc2ccc(Cl)cc2)c2ccccc12 [Compound 335] is lower in pIC50: 6.00 to 6.30 for the first, less than 5.60 for the second.

First: O=C(NCCc1ccc(O)cc1)c1nn(Cc2ccc(Cl)cc2)c2ccccc12 [Compound 40]
Second: O=C(NCCc1ccncn1)c1nn(Cc2ccc(Cl)cc2)c2ccccc12 [Compound 121]
The pIC50 of the first is higher: 6.30 to 7.00 for the first, 5.60 to 6.00 for the second. The first is the more potent here.

First: Cc1ccc(Cn2nc(C(=O)NCCc3cccnc3)c3cc(Cl)ccc32)cc1 [Compound 27]
Second: Cc1ccc(Cn2nc(C(=O)NCCc3cccnc3)c3ccccc32)cc1 [Compound 52]
The pIC50 of the first is higher: greater than 7.00 for the first, 6.30 to 7.00 for the second. The first is the more potent here.

First: CC(Cc1ccccn1)NC(=O)c1nn(Cc2ccc(Cl)cc2)c2ccccc12 (stereo not shown) [Compound 127]
Second: CC(C)(C)c1ccc(Cn2nc(C(=O)NCCc3ccccn3)c3ccccc32)cc1 [Compound 112]
The pIC50 of the first is lower: less than 5.60 for the first, 5.60 to 6.00 for the second.

First: CC(C)c1cnnn1CCNC(=O)c1nn(Cc2ccc(Cl)cc2)c2ccccc12 [Compound 143, 1-(4-chlorobenzyl)-N-(2-(5-isopropyl-1H-1,2,3-triazol-1-yl)ethyl)-1H-indazole-3-carboxamide]
Second: CC(C)c1cn(CCNC(=O)c2nn(Cc3ccc(Cl)cc3)c3ccccc23)nn1 [Compound 137, 1-(4-chlorobenzyl)-N-(2-(4-isopropyl-1H-1,2,3-triazol-1-yl)ethyl)-1H-indazole-3-carboxamide]
The pIC50 of the first is lower: 6.30 to 7.00 for the first, greater than 7.00 for the second. The second is the more potent here.

First: N#Cc1ccc(Cn2nc(C(=O)NCCc3nnc4ccccn34)c3ccccc32)cc1 [Compound 408]
Second: O=C(NCCc1nnc2ccccn12)c1nn(Cc2ccc(Cl)c(F)c2)c2ccccc12 [Compound 524]
The pIC50 of the first is lower: 6.30 to 7.00 for the first, greater than 7.00 for the second.

Cc1ccc(Cn2nc(C(=O)O)c3cc(Cl)ccc32)cc1 [Compound 330] and O=C(O)c1nn(Cc2cccc(OC(F)(F)F)c2)c2ccccc12 [Compound 328] cannot be ordered by pIC50: less than 5.60 for the first, less than 5.60 for the second.

O=C(NCCn1nnc2ccccc21)c1nn(Cc2ccc(Cl)cc2)c2ccc(F)cc12 [Compound 533] and O=C(NCCc1nnc2ccccn12)c1nn(Cc2ccc(C(F)(F)F)cc2)c2ccc(F)cc12 [Compound 531] cannot be ordered by pIC50: greater than 7.00 for the first, greater than 7.00 for the second.

First: O=C(NCCc1nnc2ccccn12)c1nn(Cc2cc3ccccc3s2)c2ccccc12 [Compound 558]
Second: O=C(NCCc1nnc2ccccn12)c1nn(Cc2cnc3ccccc3c2)c2ccccc12 [Compound 455]
The pIC50 of the first is higher: greater than 7.00 for the first, 6.30 to 7.00 for the second. The first is the more potent here.

Compared with O=C(NCCc1cccnc1)c1nn(Cc2ccc(F)cc2)c2ccccc12 [Compound 57], O=C(NCCc1cccnc1)c1nn(Cc2ccc(Cl)cc2Cl)c2ccccc12 [Compound 16] is higher in pIC50: 6.30 to 7.00 for the first, greater than 7.00 for the second. The second is the more potent here.

First: Cc1cc(C)c(Cn2nc(C(=O)NCCc3nnc4ccccn34)c3ccccc32)c(C)c1 [Compound 479]
Second: Cc1ccc2nc(Cn3nc(C(=O)NCCc4nnc5ccccn45)c4ccccc43)n(C)c2c1 [Compound 568]
The pIC50 of the first is higher: 6.30 to 7.00 for the first, 6.00 to 6.30 for the second. The first is the more potent here.

First: CC1(c2cn(CCNC(=O)c3nn(Cc4ccc(Cl)cc4)c4ccccc34)nn2)COC1 [Compound 139]
Second: Cn1cc2cccc(CNC(=O)c3nn(Cc4ccc(Cl)cc4)c4ccccc34)c2n1 [Compound 428]
The pIC50 of the first is higher: 6.30 to 7.00 for the first, less than 5.60 for the second. The first is the more potent here.

Cc1ccc(Cn2nc(C(=O)NCCc3nc4c(s3)CCC4)c3ccccc32)cc1 [Compound 36] and Cc1cc(Cn2nc(C(=O)NCCc3nc4c(s3)CCCC4)c3ccccc32)ccc1Cl [Compound 68] fall in the same range of pIC50: 6.30 to 7.00 for the first, 6.30 to 7.00 for the second.

O=C(NCCc1nnc2ccccn12)c1nn(Cc2nnc(-c3ccccc3)o2)c2ccccc12 [Compound 414] and O=C(NCCc1nnc2ccccn12)c1nn(Cc2cnn(-c3ccccc3)c2)c2ccccc12 [Compound 498] fall in the same range of pIC50: 6.30 to 7.00 for the first, 6.30 to 7.00 for the second.

First: O=C(NCCc1nnc2ccccn12)c1nn(Cc2ccn3ccnc3c2)c2ccccc12 [Compound 476]
Second: O=C(NCCc1nnc2ccccn12)c1nn(Cc2ccc(-c3cnco3)cc2)c2ccccc12 [Compound 478]
The pIC50 of the first is lower: less than 5.60 for the first, 6.00 to 6.30 for the second. The second is the more potent here.

Cc1ccc(Cn2cc(C(=O)NCCc3nc(C)cs3)c3ccccc32)cc1 [Compound 159] and Cc1ccc(Cn2cc(C(=O)NCCc3cn4c(n3)SCC4)c3ccccc32)cc1 [Compound 181] fall in the same range of pIC50: 6.30 to 7.00 for the first, 6.30 to 7.00 for the second.

First: CC(C)(C)c1ccc(Cn2nc(C(=O)NCCc3nnc4n3CCCCC4)c3ccccc32)cc1 [Compound 50]
Second: O=C(NCCc1nnc2n1CCCCC2)c1nn(Cc2ccc(C(F)(F)F)cc2)c2ccccc12 [Compound 5]
The pIC50 of the first is lower: 6.30 to 7.00 for the first, greater than 7.00 for the second.

Compared with O=C(NCCc1nc2c(s1)CCCC2)c1nn(Cc2ccccc2Cl)c2ccccc12 [Compound 95], CC(C)c1ccc(Cn2nc(C(=O)NCCc3nnc4n3CCCCC4)c3ccccc32)cc1 [Compound 35] is higher in pIC50: 5.60 to 6.00 for the first, 6.30 to 7.00 for the second. The second is the more potent here.

First: O=C(NCCc1nnc2ccccn12)c1nn(Cc2ccc(Cl)cc2)c2cc(C(F)(F)F)ccc12 [Compound 564]
Second: O=C(NCCc1nnc2ccccn12)c1nn(CCc2ccc(Cl)c(Cl)c2)c2ccccc12 [Compound 505]
The pIC50 of the first is higher: greater than 7.00 for the first, 5.60 to 6.00 for the second.

First: COc1ccccc1CCNC(=O)c1cn(Cc2cccc(F)c2)c2ccccc12 [Compound 221]
Second: Cc1ccc(CCNC(=O)c2cn(Cc3ccc(Cl)cc3)c3ccccc23)cc1 [Compound 175]
The pIC50 of the first is lower: 5.60 to 6.00 for the first, 6.30 to 7.00 for the second. The second is the more potent here.

Compared with O=C(NCCc1nnc2ccccn12)c1nn(Cc2ccc3c(c2)OC(F)(F)O3)c2ccccc12 [Compound 507], O=C(NCCc1nnc2ccccn12)c1nn(Cc2cc3c(cc2Cl)OCO3)c2ccccc12 [Compound 411] is higher in pIC50: 6.30 to 7.00 for the first, greater than 7.00 for the second. The second is the more potent here.

Cc1nc(Cn2nc(C(=O)NCCc3nnc4ccccn34)c3ccccc32)cs1 [Compound 439] and Cc1oc(-c2ccccc2F)nc1Cn1nc(C(=O)NCCc2nnc3ccccn23)c2ccccc21 [Compound 514] fall in the same range of pIC50: 6.30 to 7.00 for the first, 6.30 to 7.00 for the second.

Same assay, conditions: versus 20 μM deoxycholic acid agonist; HEK cells expressing human MRGPR X4; read-out: MRGPRX4 Antagonist Activity

O=C(NCCc1nnc2ccccn12)c1nn(Cc2ccc(-c3ccccc3)cc2)c2ccccc12 [Compound 410] and O=C(NCCc1nnc2ccccn12)c1nn(CCc2ccc(Cl)cc2)c2ccccc12 [Compound 442] cannot be ordered by pIC50: less than 5.60 for the first, less than 5.60 for the second.

First: O=C(CS(=O)(=O)c1cn(Cc2ccc(Cl)cc2)c2ccccc12)Nc1ccccc1F [Compound 237, 2-((1-(4-chlorobenzyl)-1H-indol-3-yl)sulfonyl)-N-(2-fluorophenyl)acetamide]
Second: O=C(CS(=O)(=O)c1cn(Cc2ccc(Cl)cc2)c2ccccc12)Nc1ccccc1Cl [Compound 244]
The pIC50 of the first is higher: 6.30 to 7.00 for the first, 6.00 to 6.30 for the second.

First: O=C(NS(=O)(=O)c1ccccn1)c1nn(Cc2ccc(Cl)cc2)c2ccccc12 [Compound 291]
Second: O=C(NS(=O)(=O)Cc1ccccn1)c1nn(Cc2ccc(Cl)cc2)c2ccccc12 [Compound 299]
The pIC50 of the first is higher: 5.60 to 6.00 for the first, less than 5.60 for the second.

First: Cc1cccc(NC(=O)CS(=O)(=O)c2cn(Cc3ccc(Cl)cc3)c3ccccc23)c1 [Compound 243]
Second: CN(C)C(=O)CS(=O)(=O)c1cn(Cc2ccc(Cl)cc2)c2ccccc12 [Compound 252]
The pIC50 of the first is higher: 6.00 to 6.30 for the first, 5.60 to 6.00 for the second.

O=C(NCCc1nnc2ccccn12)c1nn(CCCOc2ccc(Cl)cc2)c2ccccc12 [Compound 470] and O=C(NS(=O)(=O)c1ccc(Cl)cc1Cl)c1nn(Cc2ccc(Cl)cc2)c2ccccc12 [Compound 308] cannot be ordered by pIC50: less than 5.60 for the first, less than 5.60 for the second.

Cc1c(Cl)cccc1S(=O)(=O)NC(=O)c1nn(Cc2cccc(F)c2)c2ccccc12 [Compound 307] and N#Cc1ccc(S(=O)(=O)NC(=O)c2nn(Cc3cccc(F)c3)c3ccccc23)cc1Cl [Compound 301] cannot be ordered by pIC50: less than 5.60 for the first, less than 5.60 for the second.

N#Cc1ccc(S(=O)(=O)NC(=O)c2nn(Cc3ccc(OC(F)F)cc3)c3ccccc23)cc1 [Compound 280] and Cc1cccc(S(=O)(=O)NC(=O)c2nn(Cc3ccc(OC(F)F)cc3)c3ccccc23)c1Cl [Compound 283] fall in the same range of pIC50: 5.60 to 6.00 for the first, 5.60 to 6.00 for the second.

Cc1cccc(S(=O)(=O)NC(=O)c2nn(Cc3ccc(OC(F)F)cc3)c3ccccc23)c1C [Compound 282] and Cc1cccc(NC(=O)CS(=O)(=O)c2cn(CCN3CCC(F)(F)C3)c3ccccc23)c1 [Compound 254] fall in the same range of pIC50: 5.60 to 6.00 for the first, 5.60 to 6.00 for the second.

Source: patent US20240254089A1, “MODULATORS OF MAS-RELATED G-PROTEIN RECEPTOR X4 AND RELATED PRODUCTS AND METHODS” (ESCIENT PHARMACEUTICALS, INC., priority 2020, published 2024)
